In this data set the test system is bone marrow-derived dendritic cells. The data set is described as follows: Promotion of interferon β production from bone marrow-derived dendritic cells (PBL interferon β assay kit). The data set is classed as cell-based, mouse. How it is done: In addition, measurement was also carried out on interferon β, which has been reported to be involved in the production of interleukin 12. Activity promoting production of interferon β from bone marrow-derived dendritic cells (after culturing for 6 hours using an interferon β assay kit (PBL)) was as shown in FIG. 8.
At this time, interferon […], which has been reported to be involved in interleukin 12 production, was also measured.
Bone marrow-derived dendritic cells were prepared in the same manner as Example 2. Synthetic RNA was added to the bone marrow-derived dendritic cells followed by co-culturing for 6 hours in a 5% CO2 incubator at 37° C. Interferon β production promoting activity was measured using an interferon β assay kit manufactured by PBL.
Bone marrow-derived dendritic cells were prepared in the same manner as Example 2. Synthetic RNA was added to the bone marrow-derived dendritic cells followed by co-culturing for 24 hours in a 5% CO2 incubator at 37° C. Interferon β production promoting activity was measured using the interferon β assay kit manufactured by PBL.

With “DSR1: synthetic double-stranded RNA, 46 mer, SEQ ID NO. 5, sequence cloned from Th221 double-stranded RNA fraction (AAATTTTCAAAAACCTGTTTTGCTTCTTCTAAAAATCCAATTGAAA; listed as DNA, chemistry not given here; listed as Tetragenococcus halophilus)”, the “interferon β production promoting activity” value (culturing for 6 hours, concentration response) is “increased dependent on the concentration” and the “interferon β production promoting activity” value (dendritic cells from TLR3-knockout mice vs wild type, 6 hours) is on record as “decreased”.

B1: DSR2: synthetic double-stranded RNA, 119 mer, SEQ ID NO. 6, made by in vitro transcription and annealing (nucleic acid, listed as Tetragenococcus halophilus)
chain: AAAAAATTACCTTTTTCTATTCGTGAGAAAATTTCTCAAGCCGACAAGTATCATAAAAAATTTGCTTTTGAACACTTTTTGAAGGTGTTTCTCTATGGCATCGATCATGAGTGTGAAAG
modifications: RNA, all phosphodiester, T or U not given here; further chemistry not fully specified
notes: 6, made by in vitro transcription and annealing
Regarding B1, the “interferon β production from bone marrow-derived dendritic cells” value (co-culturing for 24 hours) is listed as “indicated to be produced”.

The record behind these values is patent US8334371B2, “Lactic acid bacteria-derived double-stranded RNA” (Kikkoman Corporation, priority 2007, dated 2012).
